From PubChem BioAssay (NCI)
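Results reflect a 48-hour exposure of cells in 96-well plates to compound at five concentrations. TGI denotes the concentration required for complete inhibition of growth.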

What was measured:
Test in all cases: NCI tumour cell line growth inhibition, 48 h
SK-MEL-28 melanoma = test system: SK-MEL-28 melanoma
OVCAR-3 ovarian = test system: OVCAR-3 ovarian
SNB-19 CNS = test system: SNB-19 CNS
U251 CNS = test system: U251 CNS
K-562 leukemia = test system: K-562 leukemia
DU-145 prostate = test system: DU-145 prostate
LOX IMVI melanoma = test system: LOX IMVI melanoma
RXF 393 renal = test system: RXF 393 renal
HS 578T breast = test system: HS 578T breast
SF-539 CNS = test system: SF-539 CNS

Row | Compound | TGI (SK-MEL-28 melanoma) [µM] | TGI (OVCAR-3 ovarian) [µM] | TGI (SNB-19 CNS) [µM] | TGI (U251 CNS) [µM] | TGI (K-562 leukemia) [µM] | TGI (DU-145 prostate) [µM] | TGI (LOX IMVI melanoma) [µM] | TGI (RXF 393 renal) [µM] | TGI (HS 578T breast) [µM] | TGI (SF-539 CNS) [µM]
1 | CCOC(=O)CC1C(C(=O)OCC)=Cn2c([nH]c3cccc4cccc2c43)=C1C(=O)OCC (stereo not given) | > 100 | > 100 | > 100 | > 100 | > 100 | > 100 | > 100 | > 100 | – | –
2 | CCOC(=O)NCC(=O)NCC(=O)NCC(N)=O | > 100 | > 100 | > 100 | > 100 | > 100 | > 100 | – | > 100 | > 100 | –
3 | CC(C)C(Nc1c2ccccc2[n+](C)c2ccccc12)C(=O)O (stereo not given) | – | > 100 | > 100 | > 100 | > 100 | – | – | > 100 | – | > 100
4 | CCOC(=O)CSc1nc(-c2ccc(Cl)cc2)c(C#N)c(=O)[nH]1 | > 100 | > 100 | > 100 | > 100 | > 100 | > 100 | – | > 100 | > 100 | > 100
5 | Cc1cc(C)n(C(=CC(=O)C(Cl)Cl)n2nc(C)cc2C)n1 | – | 16.1 | 41.3 | 20.4 | 7.42 | 23 | 3.67 | – | > 100 | 14.1
6 | Cc1cc(S(=O)(=O)NC2=NCc3c(F)cccc3N2)c(S)cc1Cl | > 100 | > 100 | > 100 | > 100 | – | > 100 | > 100 | > 100 | > 100 | > 100
7 | Nc1ccc2c3c1cccc3c(=O)n1c3ccc(Cc4ccc5c(c4)nc4c6ccc(N)c7cccc(c(=O)n54)c76)cc3nc21 | > 100 | > 100 | > 100 | > 100 | > 100 | > 100 | > 100 | > 100 | – | > 100
8 | CC1(c2ccc(Cl)cc2)c2ccccc2C(=O)N1CCCN1C(=O)c2ccccc2C1=O (stereo not given) | > 100 | 99.7 | 78.5 | > 100 | > 100 | > 100 | 47.5 | 94.5 | > 100 | –
9 | CCOC(=O)/C(=C/c1cn(C(C)=O)c2ccccc12)P(=O)(OC)OC | > 100 | 64.8 | – | > 100 | > 100 | > 100 | 79.2 | – | > 100 | –
10 | CC(C)(C)C(=O)C(N)C(=O)C(C)(C)C | > 100 | – | > 100 | > 100 | > 100 | > 100 | > 100 | > 100 | > 100 | > 100
11 | CCOC(=O)CCC(NC(=O)c1ccc(NCc2ccc3nc(OC)c(OC)nc3c2)c2ccccc12)C(=O)OCC (stereo not given) | > 100 | > 100 | > 100 | > 100 | > 100 | > 100 | > 100 | > 100 | – | 56.5
12 | O=c1[nH]c2ccccc2c(=O)n1/N=C\c1ccccc1O | > 100 | > 100 | > 100 | > 100 | > 100 | > 100 | > 100 | – | > 100 | > 100
